Measurements: patent publication US6355799B1, “Substituted benzene compounds, process for their preparation, and herbicidal and defoliant compositions containing them” (ISK Americas Incorporated, priority 1997, dated 2002)

Legend:
Type in all cases: in vivo
[1] = system: redroot pigweed (Amaranthus retroflexus, AMARE); assay: Pre-emerge test, greenhouse herbicide activity screening; conditions: rating scale 0-100, 14 days after application
How it was run: (§1)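 Compounds in acetone were track-sprayed at 15-1000 g ai/ha (187 l/ha) on sandy loam pots: pre-emerge one day after seeding, post-emerge at 2-3 leaf stage with 0.25% v/v non-ionic surfactant. Phytotoxicity was rated 14 days later on a 0 (no damage) to 100 (complete death) scale.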

[2] = system: barnyardgrass (Echinochloa crus-galli, ECHCG); assay: as above; conditions: rating scale 0-100, 14 days after application
How it was run: as §1

[3] = system: common ragweed (Ambrosia artemisizfolia L., AMBEL); assay: as above; conditions: rating scale 0-100, 14 days after application
How it was run: as §1

[4] = system: green foxtail (Setaria viridis, SETVI); assay: as above; conditions: rating scale 0-100, 14 days after application
How it was run: as §1

[5] = system: ivyleaf morningglory (Ipomoea hederacea, IPOHE); assay: as above; conditions: rating scale 0-100, 14 days after application
How it was run: as §1

[6] = system: johnsongrass (Sorghum halepense, SORHA); assay: as above; conditions: rating scale 0-100, 14 days after application
How it was run: as §1

[7] = system: lambsquarters (Chenopodium album, CHEAL); assay: as above; conditions: rating scale 0-100, 14 days after application
How it was run: as §1

[8] = system: large crabgrass (Digitaria sanguinalis, DIGSA); assay: as above; conditions: rating scale 0-100, 14 days after application
How it was run: as §1

[9] = system: sicklepod (Cassia obtusifolia, CASOB); assay: as above; conditions: rating scale 0-100, 14 days after application
How it was run: as §1

[10] = system: velvetleaf (Abutilon theophrasti, ABUTH); assay: as above; conditions: rating scale 0-100, 14 days after application
How it was run: as §1

[11] = system: field corn (Zea mays L., var. Dekalb 535, CORN); assay: Pre-emerge test, crop safety; conditions: rating scale 0-100, 14 days after application
How it was run: (§2)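 Rating: 0–100 visual injury, 14 DAA. Application: acetone, 187 l/ha, 15–1000 g ai/ha, flat-fan track sprayer with nozzle 40–45 cm above soil or canopy. Post-emerge runs used 0.25% v/v surfactant on 2–3 leaf plants.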

[12] = system: upland rice (Oryza sp., var. Tebonnet, RICE); assay: Pre-emerge test, crop safety; conditions: rating scale 0-100, 14 days after application
How it was run: as §2

[13] = system: barnyardgrass (Echinochloa crus-galli, ECHCG); assay: Post-emerge test, greenhouse herbicide activity screening; conditions: rating scale 0-100 (0 no damage, 100 complete death), 14 days after application
How it was run: (§3)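 Applied at 15–1000 g ai/ha from acetone in 187 l/ha spray volume. Post-emergence applications included 0.25% v/v non-ionic surfactant and reached plants sown 8–21 days before. Pre-emergence applications were incorporated by surface watering. Efficacy or crop damage was rated on a 0–100 scale after 14 days.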

[14] = system: common ragweed (Ambrosia artemisizfolia L., AMBEL); assay: as above; conditions: rating scale 0-100 (0 no damage, 100 complete death), 14 days after application
How it was run: as §3

[15] = system: green foxtail (Setaria viridis, SETVI); assay: as above; conditions: rating scale 0-100 (0 no damage, 100 complete death), 14 days after application
How it was run: as §3

[16] = system: ivyleaf morningglory (Ipomoea hederacea, IPOHE); assay: as above; conditions: rating scale 0-100 (0 no damage, 100 complete death), 14 days after application
How it was run: as §3

[17] = system: johnsongrass (Sorghum halepense, SORHA); assay: as above; conditions: rating scale 0-100 (0 no damage, 100 complete death), 14 days after application
How it was run: as §3

[18] = system: lambsquarters (Chenopodium album, CHEAL); assay: as above; conditions: rating scale 0-100 (0 no damage, 100 complete death), 14 days after application
How it was run: as §3

[19] = system: large crabgrass (Digitaria sanguinalis, DIGSA); assay: as above; conditions: rating scale 0-100 (0 no damage, 100 complete death), 14 days after application
How it was run: as §3

[20] = system: redroot pigweed (Amaranthus retroflexus, AMARE); assay: as above; conditions: rating scale 0-100 (0 no damage, 100 complete death), 14 days after application
How it was run: as §3

[21] = system: sicklepod (Cassia obtusifolia, CASOB); assay: as above; conditions: rating scale 0-100 (0 no damage, 100 complete death), 14 days after application
How it was run: as §3

[22] = system: velvetleaf (Abutilon theophrasti, ABUTH); assay: as above; conditions: rating scale 0-100 (0 no damage, 100 complete death), 14 days after application
How it was run: as §3

[23] = system: field corn (Zea mays L., var. Dekalb 535, CORN); assay: Post-emerge test, crop safety; conditions: rating scale 0-100 (0 no damage, 100 complete death), 14 days after application
How it was run: as §1

[24] = system: upland rice (Oryza sp., var. Tebonnet, RICE); assay: Post-emerge test, crop safety; conditions: rating scale 0-100 (0 no damage, 100 complete death), 14 days after application
How it was run: as §1

COc1c(Cl)cc(F)c(-n2c(=O)cc(C(F)(F)F)n(C)c2=O)c1CC(Cl)C(=O)OC(C)(C)C (stereo not drawn) [14-18]
Pre-emerge herbicidal activity, phytotoxicity rating AMARE ([1]; 63 g ai/ha): 100
Pre-emerge herbicidal activity, phytotoxicity rating AMARE ([1]; 250 g ai/ha): 100
Pre-emerge herbicidal activity, phytotoxicity rating ECHCG ([2]; 63 g ai/ha): 0
Pre-emerge herbicidal activity, phytotoxicity rating ECHCG ([2]; 250 g ai/ha): 20
Pre-emerge herbicidal activity, phytotoxicity rating AMBEL ([3]; 63 g ai/ha): 0
Pre-emerge herbicidal activity, phytotoxicity rating AMBEL ([3]; 250 g ai/ha): 70
Pre-emerge herbicidal activity, phytotoxicity rating SETVI ([4]; 63 g ai/ha): 0
Pre-emerge herbicidal activity, phytotoxicity rating SETVI ([4]; 250 g ai/ha): 20
Pre-emerge herbicidal activity, phytotoxicity rating IPOHE ([5]; 63 g ai/ha): 0
Pre-emerge herbicidal activity, phytotoxicity rating IPOHE ([5]; 250 g ai/ha): 20
Pre-emerge herbicidal activity, phytotoxicity rating SORHA ([6]; 63 g ai/ha): 0
Pre-emerge herbicidal activity, phytotoxicity rating SORHA ([6]; 250 g ai/ha): 10
Pre-emerge herbicidal activity, phytotoxicity rating CHEAL ([7]; 63 g ai/ha): 100
Pre-emerge herbicidal activity, phytotoxicity rating CHEAL ([7]; 250 g ai/ha): 100
Pre-emerge herbicidal activity, phytotoxicity rating DIGSA ([8]; 63 g ai/ha): 0
Pre-emerge herbicidal activity, phytotoxicity rating DIGSA ([8]; 250 g ai/ha): 90
Pre-emerge herbicidal activity, phytotoxicity rating CASOB ([9]; 63 g ai/ha): 0
Pre-emerge herbicidal activity, phytotoxicity rating CASOB ([9]; 250 g ai/ha): 20
Pre-emerge herbicidal activity, phytotoxicity rating ABUTH ([10]; 63 g ai/ha): 40
Pre-emerge herbicidal activity, phytotoxicity rating ABUTH ([10]; 250 g ai/ha): 70
Pre-emerge phytotoxicity rating, crop damage CORN ([11]; 63 g ai/ha): 0
Pre-emerge phytotoxicity rating, crop damage CORN ([11]; 250 g ai/ha): 0
Pre-emerge phytotoxicity rating, crop damage RICE ([12]; 63 g ai/ha): 0
Pre-emerge phytotoxicity rating, crop damage RICE ([12]; 250 g ai/ha): 10
Post-emerge Herbicidal Activity, phytotoxicity rating ECHCG ([13]; Rate 63 g ai/ha): 99
Post-emerge Herbicidal Activity, phytotoxicity rating ECHCG ([13]; Rate 250 g ai/ha): 100
Post-emerge Herbicidal Activity, phytotoxicity rating AMBEL ([14]; Rate 63 g ai/ha): 0
Post-emerge Herbicidal Activity, phytotoxicity rating AMBEL ([14]; Rate 250 g ai/ha): 10
Post-emerge Herbicidal Activity, phytotoxicity rating SETVI ([15]; Rate 63 g ai/ha): 10
Post-emerge Herbicidal Activity, phytotoxicity rating SETVI ([15]; Rate 250 g ai/ha): 20
Post-emerge Herbicidal Activity, phytotoxicity rating IPOHE ([16]; Rate 63 g ai/ha): 30
Post-emerge Herbicidal Activity, phytotoxicity rating IPOHE ([16]; Rate 250 g ai/ha): 60
Post-emerge Herbicidal Activity, phytotoxicity rating SORHA ([17]; Rate 63 g ai/ha): 10
Post-emerge Herbicidal Activity, phytotoxicity rating SORHA ([17]; Rate 250 g ai/ha): 30
Post-emerge Herbicidal Activity, phytotoxicity rating CHEAL ([18]; Rate 63 g ai/ha): 99
Post-emerge Herbicidal Activity, phytotoxicity rating CHEAL ([18]; Rate 250 g ai/ha): 100
Post-emerge Herbicidal Activity, phytotoxicity rating DIGSA ([19]; Rate 63 g ai/ha): 20
Post-emerge Herbicidal Activity, phytotoxicity rating DIGSA ([19]; Rate 250 g ai/ha): 60
Post-emerge Herbicidal Activity, phytotoxicity rating AMARE ([20]; Rate 63 g ai/ha): 100
Post-emerge Herbicidal Activity, phytotoxicity rating AMARE ([20]; Rate 250 g ai/ha): 100
Post-emerge Herbicidal Activity, phytotoxicity rating CASOB ([21]; Rate 63 g ai/ha): 20
Post-emerge Herbicidal Activity, phytotoxicity rating CASOB ([21]; Rate 250 g ai/ha): 60
Post-emerge Herbicidal Activity, phytotoxicity rating ABUTH ([22]; Rate 63 g ai/ha): 30
Post-emerge Herbicidal Activity, phytotoxicity rating ABUTH ([22]; Rate 250 g ai/ha): 60
Post-emerge phytotoxicity rating CORN (crop damage) ([23]; Rate 63 g ai/ha): 20
Post-emerge phytotoxicity rating CORN (crop damage) ([23]; Rate 250 g ai/ha): 50
Post-emerge phytotoxicity rating RICE (crop damage) ([24]; Rate 63 g ai/ha): 10
Post-emerge phytotoxicity rating RICE (crop damage) ([24]; Rate 250 g ai/ha): 25
